Values joined by “and” are separate entries in the source; they are usually repeats but may differ in a detail not shown here. Equal values may be shown once.
What was measured:
Type in all cases: cell-based
[1] = system: MDA-MB-468 human breast cancer cells; test: Microarray gene expression analysis (Affymetrix, AffyLimma); details: 6 h
Protocol: MDA-MB-468 cells were treated with 5 μg/mL (15 μM) or 20 μg/mL of CA for 6 or 24 h. RNA was isolated using methods known in the art. Total cellular RNA was extracted using Trizol (Invitrogen; Carlsbad, Calif.) according to the manufacturer's protocol with minor modifications, and then purified twice with Qiagen's RNeasy column. Total RNA (8 μg) was reverse transcribed with T7-(dT)24 primer and Super Script III reverse transcriptase (Invitrogen).
Microarray analysis was performed using methods known in the art. Labeled cDNA was generated from MDA-MB-468 cells and hybridized to Affymetrix […] genome arrays at Columbia University following standard Affymetrix protocols. Analysis was performed using the AffyLimmaGUI package in the open-source Bioconductor suite.
Affy-Limma analysis was used to determine the effects of carnosic acid, at a dose of 20 μg/ml and at 6 h on the gene expression pattern in MDA-MB-468 breast cancer cells. Assays were performed as described in the Materials and methods section. Fold change (log) is the mean of the ratio of hybridization signals in carnosic acid treated vs. control treated cells {40 highest M (log-fold) values; p<0.05}.
For gene expression analysis, the samples were analyzed by AffyLima analysis. The statistical significance of differential expression was calculated using the empirical Bayesian LIMMA ([…]) method of Smyth et al. (Smyth, G. K. et al., “Use of within-array replicate spots for assessing differential expression in microarray experiments.” Bioinformatics 2005; 21:2067-75, incorporated herein by reference): B=log e(odds of differential expression), the Bayesian natural (base e) log of the odds that the genes are differentially expressed.

[2] = system: MDA-MB-453 Her2 overexpressing human breast cancer cells; test: MTT cell proliferation assay on MDA-MB-453 cells; details: for Proliferation (relative to control = 1) / % proliferation: MDA-MB-453, 96 h
[3] = system: MCF7 (ER positive, Her2 low) cells; test: MTT cell proliferation assay on MCF7 cells; details: Homo sapiens, read-out: IC50 growth inhibition
Protocol: (§1) MDA-MB-453 (ER negative, Her2 overexpressing), MDA-MB-468 (triple negative) and MCF7 (ER positive, Her2 low) cells, HT29 (p53 positive human colon cancer cells) (ATCC, Manassas, Va.) were grown in Dulbecco's Modified Eagle's medium (DMEM) (Gibco BRL Life Technologies, Inc., Rockville, Md.) containing 10% (v/v) fetal bovine serum (FBS) (Gibco BRL) at 37° C., 5% C02. SUM 149 (Her2 overexpressing, ER low) (the gift of Dr. R. Parsons, Columbia University Medical Center, New York, N.Y.) were cultivated in Ham's F-12 medium with 10% FBS. MCF7 and MCF7/Her2-18 (MCF7 cells transfected with a full length Her2 cDNA coding region, 45-fold increase Her2) were the kind gift of Dr. Dennis Slamon (Los Angeles, Calif.). These cells were maintained in RPMI supplemented with 10% FBS plus glutamine (1%) and PSF (1%) (Gibco, Rockville Md.).
(§2) MTT assay: the MTT {3-(4,5-dimethyl-2-thiazol)-2,5-diphenyl-2H tetrazolilum bromide} (Dojindo; Tokyo, Japan) cell proliferation assay system (Roche Diagnostic, Mannheim, Germany) was used to determine the sensitivity of the various cell lines to agents. Cells were seeded at 1×10^4 cells/well in 96-well plates and allowed to attach for 24 h. […] The cells were treated for 96 or 120 h, after which they were incubated with MTT reagents and the absorbance read at 650 and 575 nm. For cell growth assays, the data are expressed as mean+/−standard deviation. […]

MCF7/Her2-18 cells = test: MTT cell proliferation assay on MCF7/Her2-18 cells; details: Homo sapiens; MCF7/Her2-18 (45-fold increase Her2); read-out: IC50 growth inhibition
Protocol: as §1, §2

[4] = system: HT29 human colon cancer cells; test: Proliferation assay (MTT) on HT29 cells; details: 1 μg/ml, HT29, 96 h
Protocol: The HT29 cells were maintained in McCoy's Media containing 10% (v/v) fetal bovine serum (FBS) (Gibco BRL) at 37° C., 5% C02.
MTT assay: the MTT {3-(4,5-dimethyl-2-thiazol)-2,5-diphenyl-2H tetrazolilum bromide} (Dojindo; Tokyo, Japan) cell proliferation assay system (Roche Diagnostic, Mannheim, Germany) was used to determine the sensitivity of the various cell lines to agents. Cells were seeded at 1×10^4 cells/well in 96-well plates and allowed to attach for 24 h. The medium was replaced with fresh medium containing DMSO or compound. The cells were treated for 96 or 120 h, after which they were incubated with MTT reagents and the absorbance read at 650 and 575 nm. For cell growth assays, the data are expressed as mean+/−standard deviation. Control and treated cells were compared using the student's t-test (p<0.05).
HT29 (p53 positive human colon cancer cells), as well as MDA-MB-453 Her2 overexpressing ER-negative human breast cancer cells are treated with increasing concentrations of the liposome carnosic acid complex and carnosic acid.
Cells were exposed to increasing concentrations of agents for 96 h and the number of viable cells determined by the MTT assay.

ER-negative SUM149 cells = test: MTT cell proliferation assay on SUM149 cells; details: read-out: IC50 growth inhibition
Protocol: as §1, §2

`CC(C)c1cc2c(c(O)c1O)[C@@]1(C(=O)O)CCCC(C)(C)[C@@H]1CC2` [carnosic acid] was tested, and the “number of genes altered, p<0.05” value ([1]; 20 μg/ml) was 124 genes, the “ratio of genes activated to suppressed” value ([1]; 20 μg/ml) was 4.6 and the “number of genes repressed” value ([1]; higher dose (20 μg/ml)) was 22 genes. The “number of genes whose expression is activated” value ([1]; higher dose (20 μg/ml)) was 102 genes, the “number of genes whose expression is activated” value ([1]; low dose (5 μg/ml), glutathione metabolism and transport genes) was 3 genes and the “M (log-fold) GDF15/LOC100292463 expression” value ([1]; probe 22577_x_at, 20 μg/ml) was 3.2033 log-fold. For the same compound, the “M (log-fold) TXNRD1 expression” value ([1]; probe 201266_at, 20 μg/ml) was 1.6785 log-fold, the “M (log-fold) ELF3 expression” value ([1]; probe 201510_at, 20 μg/ml) was −1.3391 log-fold and the “M (log-fold) HEXIM1 expression” value ([1]; probe 202814_s_at, 20 μg/ml) was −1.2946 log-fold. For the same compound, the “M (log-fold) GCLC expression” value ([1]; probe 202922_at, 20 μg/ml) was 2.5514 log-fold, the “M (log-fold) GCLC expression” value ([1]; probe 202923_s_at, 20 μg/ml) was 2.3524 log-fold and the “M (log-fold) HMOX1 expression” value ([1]; probe 203665_at, 20 μg/ml) was 6.2079 log-fold. The “M (log-fold) TTLL4 expression” value ([1]; probe 203702_s_at, 20 μg/ml) was 1.4497 log-fold, the “M (log-fold) GCLM expression” value ([1]; probe 203925_at, 20 μg/ml) was 1.6079 log-fold and the “M (log-fold) CDKN2C expression” value ([1]; probe 204159_at, 20 μg/ml) was −1.5843 log-fold. The “M (log-fold) PMAIP1 expression” value ([1]; probe 204286_s_at, 20 μg/ml) was 1.5443 log-fold, the “M (log-fold) KIF21B expression” value ([1]; probe 204411 at, 20 μg/ml) was 2.0237 log-fold and the “M (log-fold) CBR3 expression” value ([1]; probe 205379_at, 20 μg/ml) was 1.4702 log-fold. For the same compound, the “M (log-fold) CTH expression” value ([1]; probe 206085_s_at, 20 μg/ml) was 2.3083 log-fold, the “M (log-fold) ABCC2 expression” value ([1]; probe 206155_at, 20 μg/ml) was 2.2558 log-fold and the “M (log-fold) CYP4F3 expression” value ([1]; probe 206515 _at, 20 μg/ml) was 2.4762 log-fold. For the same compound, the “M (log-fold) AKR1B10 expression” value ([1]; probe 206561_s_at, 20 μg/ml) was 2.3416 log-fold, the “M (log-fold) SLC7A11 expression” value ([1]; probe 207528_s_at, 20 μg/ml) was 2.3041 log-fold and the “M (log-fold) ID3 expression” value ([1]; probe 207826_s_at, 20 μg/ml) was −1.9788 log-fold. For the same compound, the “M (log-fold) DDIT3/NR1H3 expression” value ([1]; probe 209383_at, 20 μg/ml) was 1.8207 log-fold, the “M (log-fold) GRB10 expression” value ([1]; probe 209409_at, 20 μg/ml) was 1.6777 log-fold and the “M (log-fold) RIT1 expression” value ([1]; probe 209882_at, 20 μg/ml) was 1.3792 log-fold. The “M (log-fold) SLC7A11 expression” value ([1]; probe 209921_at, 20 μg/ml) was 3.7330 log-fold, the “M (log-fold) MAP2 expression” value ([1]; probe 210015_s_at, 20 μg/ml) was 1.9566 log-fold and the “M (log-fold) AKR1C2 expression” value ([1]; probe 211653_x_at, 20 μg/ml) was 4.1458 log-fold. The “M (log-fold) ZC3HAV1 expression” value ([1]; probe 213051_at, 20 μg/ml) was −1.5819 log-fold, the “M (log-fold) AKR1C1 expression” value ([1]; probe 216594_x_at, 20 μg/ml) was 3.8405 log-fold and the “M (log-fold) CTH expression” value ([1]; probe 217127_at, 20 μg/ml) was 2.3586 log-fold. For the same compound, the “M (log-fold) SLC7A11 expression” value ([1]; probe 217678_at, 20 μg/ml) was 3.9492 log-fold, the “M (log-fold) NAMPT expression” value ([1]; probe 217738_at, 20 μg/ml) was 1.4857 log-fold and the “M (log-fold) NAMPT expression” value ([1]; probe 217739_s_at, 20 μg/ml) was 1.7329 log-fold. The “M (log-fold) PHLDA1 expression” value ([1]; probe 217996_at, 20 μg/ml) was 1.9833 log-fold, the “M (log-fold) SLC38A2 expression” value ([1]; probe 218041_x_at, 20 μg/ml) was 1.2613 log-fold and the “M (log-fold) TRIB3 expression” value ([1]; probe 218145_at, 20 μg/ml) was 1.6338 log-fold. For the same compound, the “M (log-fold) KCTD15 expression” value ([1]; probe 218553_s_at, 20 μg/ml) was 1.3491 log-fold, the “M (log-fold) OSGIN1 expression” value ([1]; probe 219475_at, 20 μg/ml) was 1.9508 log-fold and the “M (log-fold) SLC38A2 expression” value ([1]; probe 220924_s_at, 20 μg/ml) was 1.2541 log-fold. For the same compound, the “M (log-fold) RIPK4 expression” value ([1]; probe 221215_s_at, 20 μg/ml) was −1.2540 log-fold, the “M (log-fold) C9orf91 expression” value ([1]; probe 221865_at, 20 μg/ml) was 1.3335 log-fold and the “M (log-fold) ALDH1A3 expression” value ([1]; probe 222168_at, 20 μg/ml) was −1.4627 log-fold. The “inhibition of cell growth” value ([2]; 0.5 μg/ml, 96 h, MTT) was “no inhibition”, the “Proliferation (relative to control = 1)” value ([2]; 0.5 ug/ml, MTT) was 1.07 and the “% proliferation” value ([2]; 0.5 μg/ml, MTT) was 107%. For the same compound, the “Proliferation (relative to control = 1)” value ([2]; 2 ug/ml, MTT) was 0.989, the “% proliferation” value ([2]; 2 μg/ml, MTT) was 98.9% and the “Proliferation (relative to control = 1)” value ([2]; 5 ug/ml, MTT) was 0.915. The “% proliferation” value ([2]; 5 μg/ml, MTT) was 91.5%, the “Proliferation (relative to control = 1)” value ([2]; 10 ug/ml, MTT) was 0.758 and the “Proliferation (relative to control = 1)” value ([2]; 20 ug/ml, MTT) was 0.573. The IC50 ([2]; Homo sapiens, MDA-MB-453 cells, MTT assay, read-out: IC50, concentration that caused 50% inhibition of cell proliferation) was 3 µg/mL and 7 µM, the IC50 [3] was 25 µg/mL and 75 µM and the IC50 (MCF7/Her2-18 cells) was 9 µg/mL and 27 µM. The “% proliferation” value [4] was 99.3% and the IC50 (ER-negative SUM149 cells) was 1.7 µg/mL and 5.1 µM.
